{"source": "patent US20050064382A1", "about": "“Method of prevention of lysosomal leakage in eukaryotic cells by using 6-methyluracil based water-soluble compounds and method of producing thereof” (priority 2002, published 2005)", "key": {"[1]": {"test_system": "Mouse erythroleukemia (MEL) cells", "assay": "Growth activity following maximal cell damage (two freeze/thaw cycles, 10% DMSO)", "format": "cell-based", "method": "Mouse erythroleukemia (MEL) cells were damaged from exposure to two freeze/thaw cycles. The cells were then grown in the presence of 10% dimethylsulfoxide (DMSO), a substance known to damage cell membranes. […] The cells were then subjected to two freeze/thaw cycles (the cells were quickly brought to −135° C., incubated for 1 hour at −135° C. and quickly thawed to 100% humidity and 37° C.). The cell concentration was then determined by counting, using a hematocytometer. The experiments were done in duplicate."}, "MEL cells": {"test_system": "MEL cells", "assay": "Mild damage: cells damaged by one freeze/thaw cycle", "format": "cell-based, mouse", "conditions": "24 hours", "method": "Mild Damage: Influence of Glucural on cells damaged by one-freeze/thaw cycle. Cells were treated exactly as above except that they were subjected to one freeze/thaw cycle (in the absence of cryo-protector) prior to incubation at 37° C. for 24 hours."}, "THP-1 cells": {"test_system": "THP-1 cells", "assay": "DMSO shock of THP-1 cells, percentage of dead cells", "format": "cell-based, human", "method": "Cells were incubated in the presence of 10% DMSO at 37° C. for 90 minutes (tryptan-blue test)."}, "[2]": {"test_system": "Human umbilical cord vein endothelial cells (HUCVEC)", "assay": "HUCVEC Assays 2 and 3: starvation", "format": "cell-based", "conditions": "11 days without change of medium", "method": "Glucural was also tested on two primer cell cultures for protection against cell death in sub-optimal conditions.\nHuman umbilical cord vein endothelial cells (HUCVEC) were isolated from freshly obtained human umbilical cords in accordance with known methods. HUCVEC were grown in multi-well plates. After saturation of the wells, the assays were initiated. Four wells were used for each experimental group. To cause “mechanical” damage, a higher (2-2½ times) centrifugal speed was used to pick up cells after trypsin treatment. To cause enzymatic damage, full-strength trypsin solution was used instead of the recommended diluted concentration. All assays were started from the last change of medium in wells with saturated cell culture (well bottoms were covered completely by cells). Results were estimated from the percentage of the bottom covered by cells on the last day of the assay.\nAssay 2 and 3. Starvation—cell growth without change of medium during 11 days. Assays 2 and 3 were performed using two different HUCVEC isolations."}, "Saccaramices Cerevisiae": {"test_system": "Saccaramices Cerevisiae", "assay": "Viability of lyophilized yeast", "format": "cell-based", "conditions": "added prior to lyophilization", "method": "The lyophilization of yeast is a very common technique used in different fields of industry, biotechnology and research. The viability of lyophilized yeast species and strains can vary greatly. The viability of commercial baking yeast after lyophilization is high (50-80%). But other strains of yeast used in industry and research, can have viability as low as […]. […] Glucural was tested using the strain of yeast called Saccaramices Cerevisiae, a strain with a very low level of viability after lyophilization. By increasing the viability of lyophilized yeast inoculums, the amount of yeast required to make such inoculums may be lowered.\nThe standard method of lyophilization was used. […] The suspensions were aliquoted and lyophilized at standard conditions.\nTo assay the vitality of lyophilized yeast, two approaches were used:\nThe lyophilized yeast from an ampoule was re-suspended in 1 ml of regular growing medium and diluted by 10, 100, and 1,000 times. The suspensions of yeast were plated on the regular YPD agarose medium by 20 mkl per plate. After growing the colonies for 48 hours at 28° C., the number of colonies was counted.\nThis test included growing lyophilized yeast in 10 ml of growth medium for 24 hours, before plating on the agarose plates as described above.\nThe viability of the yeast strain tested increased by a factor of between 50 to 100 compared to the control group."}}}
{"substance": "complex of 2,4-dihydroxy-6-methylpyrimidine with N-methyl-D-glucamine [Glucural]", "values": [{"measurement": "The number of cells per 1 ml", "setting": "[1]; Glucural 5 mkg/ml", "result": "0 ×10^4"}, {"measurement": "The number of cells per 1 ml", "setting": "[1]; Glucural 10 mkg/ml", "result": "0 ×10^4"}, {"measurement": "The number of cells per 1 ml", "setting": "[1]; Glucural 25 mkg/ml", "result": "53 ± 7 ×10^4"}, {"measurement": "The number of cells per 1 ml", "setting": "[1]; Glucural 50 mkg/ml", "result": "107 ± 7 ×10^4"}, {"measurement": "number of cells per ml, Mild damage", "setting": "MEL cells; Glucural 25 mkg/ml", "result": "36 x 10^4"}, {"measurement": "number of cells per ml, Mild damage", "setting": "MEL cells; Glucural 50 mkg/ml", "result": "53 ± 5 x 10^4"}, {"measurement": "number of cells per ml, Mild damage", "setting": "MEL cells; Glucural 100 mkg/ml", "result": "40 ± 1 x 10^4"}, {"measurement": "number of cells per ml, Mild damage", "setting": "MEL cells; Glucural 200 mkg/ml", "result": "45 ± 0 x 10^4"}, {"measurement": "number of cells per ml, Mild damage", "setting": "MEL cells; Glucural 400 mkg/ml", "result": "31 ± 1 x 10^4"}, {"measurement": "percentage of dead THP-1 cells", "setting": "THP-1 cells; Control + Glucural 25 mkg/ml, assay 1", "result": "3.9 ± 0.7", "unit": "%"}, {"measurement": "percentage of dead THP-1 cells", "setting": "THP-1 cells; Control + Glucural 25 mkg/ml, assay 2", "result": "5.8 ± 3.1", "unit": "%"}, {"measurement": "percentage of dead THP-1 cells", "setting": "THP-1 cells; Control + Glucural 25 mkg/ml, assay 4", "result": "3.0 ± 1.0", "unit": "%"}, {"measurement": "percentage of dead THP-1 cells", "setting": "THP-1 cells; DMSO shock (10% DMSO, 37° C., 90 minutes) + Glucural 25 mkg/ml, assay 1", "result": "4.1 ± 1.6", "unit": "%"}, {"measurement": "percentage of dead THP-1 cells", "setting": "THP-1 cells; DMSO shock (10% DMSO, 37° C., 90 minutes) + Glucural 25 mkg/ml, assay 2", "result": "7.7 ± 3.4", "unit": "%"}, {"measurement": "percentage of dead THP-1 cells", "setting": "THP-1 cells; DMSO shock (10% DMSO, 37° C., 90 minutes) + Glucural 25 mkg/ml, assay 3", "result": "4.6 ± 2.2", "unit": "%"}, {"measurement": "percentage of dead THP-1 cells", "setting": "THP-1 cells; DMSO shock (10% DMSO, 37° C., 90 minutes) + Glucural 25 mkg/ml, assay 4", "result": "5.0 ± 2.3", "unit": "%"}, {"measurement": "Percent of well-bottoms covered by cells", "setting": "[2]; Assay 2, Glucural 300 mkg/ml", "result": "70-80%"}, {"measurement": "Percent of well-bottoms covered by cells", "setting": "[2]; Assay 2, Glucural 400 mkg/ml", "result": "80-90%"}, {"measurement": "Percent of well-bottoms covered by cells", "setting": "[2]; Assay 2, Glucural 500 mkg/ml", "result": "80-90%"}, {"measurement": "Percent of well-bottoms covered by cells", "setting": "[2]; Assay 3, Glucural 300 mkg/ml", "result": 100, "unit": "%"}, {"measurement": "Percent of well-bottoms covered by cells", "setting": "[2]; Assay 3, Glucural 400 mkg/ml", "result": 100, "unit": "%"}, {"measurement": "Percent of well-bottoms covered by cells", "setting": "[2]; Assay 3, Glucural 500 mkg/ml", "result": 100, "unit": "%"}, {"measurement": "optimal dose to protect yeast cells", "setting": "Saccaramices Cerevisiae", "result": 25, "unit": "mkg/ml"}]}
